Reference: ChEMBL document CHEMBL1201862, “PubChem BioAssay data set” (2004)
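Cultured in 96-well plates, cells were exposed to test compound for 48 hours across five concentrations. GI50 = concentration required for 50% inhibition of growth.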 Calls of active or inactive are those of the source. Cut-off read from the data, not from the text of the source: active = GI50 up to about 1.1 µM and inactive = higher.

Experiments:
Assay in all cases: NCI tumour cell line growth inhibition, 48 h
[1] = test system: A549
[2] = test system: COLO 205
[3] = test system: HOP-62
[4] = test system: IGROV-1
[5] = test system: MDA-MB-231
[6] = test system: MDA-MB-435
[7] = test system: MDA-N
[8] = test system: NCI-H522
[9] = test system: PC-3
[10] = test system: RPMI-8226
[11] = test system: SF-268
[12] = test system: SK-MEL-2
[13] = test system: SK-MEL-5
[14] = test system: SK-OV-3
[15] = test system: SNB-75
[16] = test system: T47D
[17] = test system: TK-10
[18] = test system: UACC-257
[19] = test system: HL-60
[20] = test system: SW-620

Measured: GI50

Cn1c(=O)c2nc(CSCc3ccccc3)[nH]c2n(C)c1=O
inactive: [1] 45.6 µM | [2] > 100 µM | [3] > 100 µM | [4] > 100 µM | [5] > 100 µM | [6] > 100 µM | [7] > 100 µM | [8] 35.6 µM | [9] > 100 µM | [10] 67.6 µM | [11] > 100 µM | [12] > 100 µM | [13] 71.6 µM | [14] > 100 µM | [15] > 100 µM | [16] > 100 µM | [17] > 100 µM | [18] > 100 µM

CC1=NN(c2cccc(Cl)c2)C2(SCC(=O)N2c2nc3ccccc3s2)/C1=C\c1ccc(Cl)cc1 (stereo unspecified)
inactive: [19] 11.8 µM | [3] 18 µM | [4] 15 µM | [5] 25.5 µM | [6] 19.9 µM | [7] 25.7 µM | [8] 20.3 µM | [9] 15.7 µM | [10] 15.6 µM | [11] 17.9 µM | [12] 16.7 µM | [13] 13.8 µM | [14] 21.5 µM | [20] 14.4 µM | [16] 24.8 µM | [17] 30.2 µM | [18] 21.6 µM

CC(=O)N1N=C(c2ccc3ccccc3c2O)CC1c1ccc(N(C)C)cc1 (stereo unspecified)
inactive: [1] > 100 µM | [2] > 100 µM | [3] > 100 µM | [4] > 100 µM | [5] > 100 µM | [6] > 100 µM | [7] > 100 µM | [8] > 100 µM | [9] > 100 µM | [10] > 100 µM | [11] > 100 µM | [12] > 100 µM | [13] > 100 µM | [14] > 100 µM | [15] > 100 µM | [20] > 100 µM | [16] > 100 µM | [17] > 100 µM | [18] > 100 µM

O=C1Nc2ccc(Br)cc2/C1=N/c1ccc(Cl)cc1
inactive: [1] 25.4 µM | [2] 1.78 µM | [19] 5.48 µM | [3] 21.7 µM | [5] 15.5 µM | [6] 2.87 µM | [7] 6.98 µM | [8] 7.66 µM | [9] 25.3 µM | [10] 4.39 µM | [11] 14.6 µM | [13] 4.15 µM | [14] 40.8 µM | [20] 6.56 µM | [16] 16.9 µM | [17] 21.8 µM | [18] 18.1 µM
